As usually defined, the pIC50 is −log10 of the IC50, conventionally taken in molar units.

pIC50: −log10 of the molar value.

The target of the assay is T1, Bcl-2-related protein A1 (Mus musculus, UniProt Q07440).
T1 sequence (Q07440 whole entry): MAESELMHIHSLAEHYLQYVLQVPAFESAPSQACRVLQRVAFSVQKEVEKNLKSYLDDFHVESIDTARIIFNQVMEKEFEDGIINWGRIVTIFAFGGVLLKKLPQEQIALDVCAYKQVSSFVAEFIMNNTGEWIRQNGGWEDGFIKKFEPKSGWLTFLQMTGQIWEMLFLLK
Put plainly: Bfl-1 inhibitors in counterscreen, dose response, biochemical (AID 504689). In general terms: The purpose of a counterscreen is to sort out artefacts and off-target activity.
`CC(=O)N1N=C(C2C(=O)N(C)C(=O)N(C)C2=O)CC1c1ccccc1` (centres undefined) [5-(1-acetyl-5-phenylpyrazolidin-3-ylidene)-1,3-dimethyl-1,3-diazinane-2,4,6-trione] gave a pIC50 of under 4.70.
Compound `Cc1cccc(NC(=S)NNC2=c3ccccc3=NC2=O)c1` showed a pIC50 of under 4.70.
With `CCOC(=O)C1C(COC(=O)c2ncc(Cl)c(Cl)c2Cl)=NC(=O)NC1C` (centres undefined), the negative logarithm of the IC50 (pIC50) was under 4.70.
The compound `CCN(CC)CCOC(=O)c1ccc(N=CC(C#N)c2nc(-c3ccc4c(c3)OCO4)cs2)cc1` (centres undefined) [2-(diethylamino)ethyl 4-[[(Z)-2-[4-(1,3-benzodioxol-5-yl)-1,3-thiazol-2-yl]-2-cyano-ethenyl]amino]benzoate] gave a pIC50 of 5.76.
Turning to `C#CCOCCOCCOCCNc1nc(N2CCN(C(=O)CCCCCCCCCCNC(=O)Cn3cc(CCCCCN)nn3)CC2)nc(N2CCN(C(=O)CCCCCCCCCCNC(=O)[C@H](CO)n3cc(CCCSC)nn3)CC2)n1` [MLS002153667], the negative-log IC50 (pIC50) was 4.93.
As to `CCN(CC)CCOC(=O)c1ccc(N=CC(C#N)c2nc(-c3ccc(OC)cc3)cs2)cc1` (centres undefined) [4-[[(Z)-2-cyano-2-[4-(4-methoxyphenyl)-2-thiazolyl]ethenyl]amino]benzoic acid 2-(diethylamino)ethyl ester], the pIC50 is 5.52.
Then `C#CCOCCOCCOCCNc1nc(N2CCN(C(=O)CCCCCCCCCCNC(=O)[C@H]([C@@H](C)CC)n3cc(CCCCN=C(N)N)nn3)CC2)nc(N2CCN(C(=O)CCCCCCCCCCNC(=O)[C@H](CCCCN)n3cc(C)nn3)CC2)n1` [RI-GK], with 5.07; and `NC(=S)NN=C1C(=O)N(C2OC(=O)c3ccccc32)c2ccccc21` (centres undefined) [[(Z)-[2-oxo-1-(3-oxo-1H-isobenzofuran-1-yl)-3-indolylidene]amino]thiourea], with under 4.70; and `C#CCOCCOCCOCCNc1nc(N2CCN(C(=O)[C@H](CCCN=C(N)N)n3cc(C(N)[C@H](C)CC)nn3)CC2)nc(N2CCN(C(=O)[C@H](CCCN=C(N)N)n3cc(C(N)[C@@H](C)CC)nn3)CC2)n1` (some centres undefined) [MLS002473475], with under 4.70.
Then `C#CCOCCOCCOCCNc1nc(N2CCN(C(=O)CCCCCCCCCCNC(=O)[C@H](CCCCN)n3cc(C)nn3)CC2)nc(N2CCN(C(=O)CCCCCCCCCCNC(=O)[C@@H]([C@H](C)CC)n3cc(CCCCCN)nn3)CC2)n1` [MLS002153655], with 5.10; and `C#CCOCCOCCOCCNc1nc(N2CCN(C(=O)CCCCCCCCCCNC(=O)[C@@H](CCSC)n3cc(CCO)nn3)CC2)nc(N2CCN(C(=O)CCCCCCCCCCNC(=O)[C@H](CO)n3cc(CCCCCN)nn3)CC2)n1` [MLS002153734], with under 4.70; and `C#CCOCCOCCOCCNc1nc(N2CCN(C(=O)CCCCCCCCCCNC(=O)[C@@H](CCSC)n3cc(CCO)nn3)CC2)nc(N2CCN(C(=O)CCCCCCCCCCNC(=O)[C@H](CCC(=O)O)n3cc(CCCCCN)nn3)CC2)n1` [MLS002153730], with under 4.70.
With `COc1ccc(CN=Nc2cc(C)nc3ccc(OC)cc23)c(OC)c1` the figure was 4.94.
Compound `C#CCOCCOCCOCCNc1nc(N2CCN(C(=O)[C@H](CCCCN)n3cc([C@@H](N)C(C)CC)nn3)CC2)nc(N2CCN(C(=O)[C@H](Cc3ccc(O)cc3)n3cc([C@@H](N)C(C)CC)nn3)CC2)n1` (some centres undefined) [SMR000391090] showed a negative-log IC50 (pIC50) of under 4.70.
As to `CCN(CC)CCOC(=O)c1ccc(N=CC(C#N)c2nc(-c3ccc(OC)c(OC)c3)cs2)cc1` (centres undefined) [SMR000434079], the pIC50 is 5.46.
With `C#CCOCCOCCOCCNc1nc(N2CCN(C(=O)[C@H](CCCCN)n3cc([C@@H](N)C(C)CC)nn3)CC2)nc(N2CCN(C(=O)[C@H](Cc3cc4ccccc4[nH]3)n3cc([C@@H](N)C(C)CC)nn3)CC2)n1` (some centres undefined) [MLS000562580] the figure was under 4.70.
Then `O=C1Nc2ccc([N+](=O)[O-])cc2C1=NNC(=S)NCC1CCCO1` (centres undefined), with under 4.70; and `C#CCOCCOCCOCCNc1nc(N2CCN(C(=O)[C@H](Cc3cc4ccccc4[nH]3)n3cc([C@@H](N)C(C)CC)nn3)CC2)nc(N2CCN(C(=O)[C@H](Cc3cc4ccccc4[nH]3)n3cc([C@@H](N)Cc4ccc(O)cc4)nn3)CC2)n1` (some centres undefined) [SMR000391146], with 4.93; and `O=C1Nc2ccccc2/C1=N/NC(=S)Nc1ccc(O)cc1` [1-(4-hydroxyphenyl)-3-[(2-oxidanylideneindol-3-yl)amino]thiourea], with under 4.70.
Then `NC(=S)NN=C1C(=O)N(CCCl)c2ccccc21`, with under 4.70; and `COCCNC(=S)NN=C1C(=O)Nc2ccc([N+](=O)[O-])cc21` [1-(2-methoxyethyl)-3-[(5-nitro-2-oxoindol-3-yl)amino]thiourea], with under 4.70.
`C#CCOCCOCCOCCNc1nc(N2CCN(C(=O)[C@H](Cc3cc4ccccc4[nH]3)n3cc([C@@H](N)CC(C)C)nn3)CC2)nc(N2CCN(C(=O)[C@H](Cc3cc4ccccc4[nH]3)n3cc([C@@H](N)CC(C)C)nn3)CC2)n1` [LW-LW] had a negative-log IC50 (pIC50) of 4.71.
With `COc1cc2c3c(c1)/C(=N/NC(N)=S)C(=O)N3C(C)(C)C=C2C` [MLS000807018] the figure was under 4.70; with `CCOC(=O)C1C(COC(=O)c2cc(OC)c(OC)c(OC)c2)=NC(=O)NC1C` (centres undefined) [MLS001161811], under 4.70.
Then `C#CCOCCOCCOCCNc1nc(N2CCN(C(=O)[C@H](CCCCN)n3cc([C@@H](N)CC(C)C)nn3)CC2)nc(N2CCN(C(=O)[C@H](Cc3cc4ccccc4[nH]3)n3cc([C@@H](N)Cc4ccc(O)cc4)nn3)CC2)n1` [SMR000391143], with under 4.70; and `C#CCOCCOCCOCCNc1nc(N2CCN(C(=O)CCCCCCCCCCNC(=O)[C@H]([C@@H](C)CC)n3cc(CCCCCN)nn3)CC2)nc(N2CCN(C(=O)CCCCCCCCCCNC(=O)[C@H](CCCCN)n3cc(CCCC(=O)O)nn3)CC2)n1` [KI-EK], with under 4.70; and `C#CCOCCOCCOCCNc1nc(N2CCN(C(=O)CCCCCCCCCCNC(=O)Cn3cc(C[C@@H](C)O)nn3)CC2)nc(N2CCN(C(=O)CCCCCCCCCCNC(=O)[C@H](CCCN=C(N)N)n3cc(C[C@@H](C)CC)nn3)CC2)n1` [MLS002153601], with 5.00.
Then `CC1=CC(C)(C)N2C(=O)/C(=N\NC(N)=S)c3cccc1c32` [SMR000218901], with under 4.70; and `C#CCOCCOCCOCCNc1nc(N2CCN(C(=O)CCCCCCCCCCNC(=O)[C@H](CCCCN)n3cc(CCO)nn3)CC2)nc(N2CCN(C(=O)CCCCCCCCCCNC(=O)[C@H](CCCCN)n3cc(CCCC(=O)O)nn3)CC2)n1` [MLS002153608], with under 4.70; and `C#CCOCCOCCOCCNc1nc(N2CCN(C(=O)CCCCCCCCCCNC(=O)Cn3cc(CCCCCN)nn3)CC2)nc(N2CCN(C(=O)CCCCCCCCCCNC(=O)[C@H]([C@@H](C)CC)n3cc(CCCCN=C(N)N)nn3)CC2)n1` [KG-RI], with 5.01.
As for `C#CCOCCOCCOCCNc1nc(N2CCN(C(=O)CCCCCCCCCCNC(=O)Cn3cc(CCCCCN)nn3)CC2)nc(N2CCN(C(=O)CCCCCCCCCCNC(=O)Cn3cc(C[C@@H](C)O)nn3)CC2)n1` [KG-TG], the negative logarithm of the IC50 (pIC50) was under 4.70.
On to `C#CCOCCOCCOCCNc1nc(N2CCN(C(=O)C([C@@H](C)CC)n3cc(C(N)COC(=O)C(F)(F)F)nn3)CC2)nc(N2CCN(C(=O)[C@H](CCCCN)n3cc(C(N)CC(C)C)nn3)CC2)n1` (some centres undefined) [SMR000453712], for which the pIC50 is under 4.70.
Then `COC(=O)c1ccc(CN2C(=O)C(=NNC(N)=S)c3ccccc32)o1`, with under 4.70; and `C#CCOCCOCCOCCNc1nc(N2CCN(C(=O)[C@H](CCCCN)n3cc([C@@H](N)C(C)CC)nn3)CC2)nc(N2CCN(C(=O)[C@H](Cc3cc4ccccc4[nH]3)n3cc([C@@H](N)CC(C)C)nn3)CC2)n1` (some centres undefined) [SMR000391070], with under 4.70; and `C#CCOCCOCCOCCNc1nc(N2CCN(C(=O)CCCCCCCCCCNC(=O)Cn3cc(CCCCCN)nn3)CC2)nc(N2CCN(C(=O)CCCCCCCCCCNC(=O)[C@H]([C@@H](C)CC)n3cc(CCCCCN)nn3)CC2)n1` [MLS002153714], with under 4.70.
The compound `CCCCNC(=S)N/N=C1\C(=O)Nc2ccccc21` [1-butyl-3-[(2-oxidanylideneindol-3-yl)amino]thiourea] gave a negative-log IC50 (pIC50) of under 4.70.
Then `C#CCOCCOCCOCCNc1nc(N2CCN(C(=O)CCCCCCCCCCNC(=O)[C@H]([C@@H](C)CC)n3cc(CCCCN=C(N)N)nn3)CC2)nc(N2CCN(C(=O)CCCCCCCCCCNC(=O)[C@@H]([C@H](C)O)n3cc(C)nn3)CC2)n1` [GT-RI], with under 4.70; and `CCN(CC)CCOC(=O)c1ccc(N=CC(C#N)c2nc(-c3cc4ccccc4oc3=O)cs2)cc1` (centres undefined) [2-(diethylamino)ethyl 4-[[(Z)-2-cyano-2-[4-(2-oxochromen-3-yl)-1,3-thiazol-2-yl]ethenyl]amino]benzoate], with 6.26; and `C#CCOCCOCCOCCNc1nc(N2CCN(C(=O)CCCCCCCCCCNC(=O)[C@H]([C@@H](C)CC)n3cc(CCCCCN)nn3)CC2)nc(N2CCN(C(=O)CCCCCCCCCCNC(=O)[C@H]([C@@H](C)CC)n3cc(CCCCN=C(N)N)nn3)CC2)n1` [MLS002153718], with 5.21.

Values taken from BindingDB's records for doi:10.7270/Q25D8Q92 (Burnham Center For Chemical Genomics, 2011).
